{"source": "patent US11318077B2", "about": "“Retinaldehyde containing compositions and methods of use” (RODAN & FIELDS, LLC, priority 2017, dated 2022)", "key": {"[1]": {"tested_on": "Retinoic Acid Response Element (RARE) transcription factor pathway", "experiment": "Cignal RARE Reporter Assay (firefly luciferase) in HEK293 cells", "assay_type": "cell-based", "conditions": "24 h, vs water", "text": "Objective: Retinoic Acid Receptor (RAR) controls gene transcription by binding to Retinoid Acid Response Elements (RAREs) in DNA. This process is modulated by all trans retinoic acid (ATRA)—a compound with well-established anti-aging skin benefits. […] Cignal RARE Reporter Assay® is designed to screen for such compounds using cell cultures. The objective of this project was to test 6 compounds (retinoic acid (ATRA), retinol, vitamin A palmitate, retinal, 10% w/w Near-1 in dimethylisosorbide, and 10% w/w retinoid ester in dimethylisosorbide) for the ability to activate RARE in this Cignal RARE Reporter Assay model.\nMaterials & Methods: The experiments were performed using HEK293 cells (Sigma, St. Louis, Mo.; cat. #85120602) seeded at 50,000 per well in a 96 well black-wall tissue culture plate. Cells were transfected by mixing Cignal Reporter Assay firefly/renilla luciferase constructs (cat. #CCS-016L; Qiagen) with Attractene Transfection Reagent (Qiagen) in Opti-MEM supplemented with 1% MEM Non-essential amino acid solution without L-glutamine. After medium change test materials were added and their effect on RARE induction was quantified 24 h later with the Dual-Luciferase Reporter Assay System (cat. #E1960; Promega)."}, "[2]": {"tested_on": "melanin production in MelanoDerm™ skin substitute", "experiment": "Melanin-modulatory effect in MelanoDerm skin substitutes (color measurement, melanin extraction)", "assay_type": "cell-based", "method": "Objective: The objective of this assay was to determine the ability of the test materials (dimethylisosorbide [DMI], retinoic acid [ATRA], 10% w/w NEAR-1 in dimethylisosorbide [NEAR-1], Niacinamide PC [NAD], and Kojic Acid [KA]) and combinations thereof to inhibit melanin production in MelanoDerm™ skin substitute model. The effect of these experimental conditions on the secretion of the proinflammatory cytokine IL-8 was also assessed, as a surrogate for skin irritation potential.\nTissues were equilibrated at 37° C. for 60 min. and undiluted samples (25 μl) of test materials were applied on top of tissues in duplicates. DMI and kojic acid were applied at 2.5% and 2% (w:v) respectively (dissolved in double distilled water). Tissue culture was pursued in the pigmentation-inducing medium EPI-100-NMM-113 for 14 days, with reapplication of test materials and changes of tissue culture media every 2-3 days.\nAt the end of the experiment, tissue pigmentation was quantified non-invasively with NS800 portable spectrophotometer (3NH Technology Co., Ltd., China). This instrument is a reflectance spectrophotometer that measures reflected light in the visible spectrum (range: 400-700 nm) recording colors in a three-dimensional space known as CIEL*a*b* color space. In this project, the L* value representing the lightness of the color was used for color assessment. For the purpose of this experiment, the range of the L* parameter spanned from 17.8 (black background) to 87.8 (white background).\nFor melanin quantification, the MelanoDerms were frozen, solubilized in Solvable™ (Perkin Elmer) and melanin was extracted at 95° C. overnight. The colorimetric signals proportional to the concentration of extracted melanin, as well as those proportional to the IL-8 in the tissue-conditioned medium in the ELISA test were quantified with Molecular Devices microplate spectrophotometer MAX190 at 490 nm and 405 nm."}, "IL-8": {"tested_on": "IL-8", "experiment": "IL-8 in MelanoDerm tissue culture-conditioned medium by ELISA (skin irritation surrogate)", "assay_type": "cell-based, Human", "conditions": "day 14", "method": "Objective: The objective of this assay was to determine the ability of the test materials (dimethylisosorbide [DMI], retinoic acid [ATRA], 10% w/w NEAR-1 in dimethylisosorbide [NEAR-1], Niacinamide PC [NAD], and Kojic Acid [KA]) and combinations thereof to inhibit melanin production in MelanoDerm™ skin substitute model. The effect of these experimental conditions on the secretion of the proinflammatory cytokine IL-8 was also assessed, as a surrogate for skin irritation potential. Tissue culture-conditioned media were assayed for the presence of IL-8 by indirect ELISA (using Invitrogen IL-8 Human CytoSet, cat. #CHC 1303). For melanin quantification, the MelanoDerms were frozen, solubilized in Solvable™ (Perkin Elmer) and melanin was extracted at 95° C. overnight. The colorimetric signals proportional to the concentration of extracted melanin, as well as those proportional to the IL-8 in the tissue-conditioned medium in the ELISA test were quantified with Molecular Devices microplate spectrophotometer MAX190 at 490 nm and 405 nm."}, "MelanoDerm tissues": {"tested_on": "MelanoDerm tissues", "experiment": "Cytotoxicity by microscopic observation of MelanoDerm tissues", "assay_type": "cell-based", "conditions": "2.2 mM; 2 weeks", "method": "Tissues were equilibrated at 37° C. for 60 min. and undiluted samples (25 μl) of test materials were applied on top of tissues in duplicates. DMI and kojic acid were applied at 2.5% and 2% (w:v) respectively (dissolved in double distilled water). Tissue culture was pursued in the pigmentation-inducing medium […]-113 for 14 days, with reapplication of test materials and changes of tissue culture media every 2-3 days. Results and Discussion: From the macroscopic documentation of all the MelanoDerm tissues at the end of the experiment, differences of color are clearly visible between the solvent controls and some test materials. Table 34 informs whether cytotoxicity may have played a role in these differences. Table 34 also reports the non-invasive MelanoDerm color measurement performed with portable spectrophotometer. [table]"}, "[3]": {"tested_on": "Retinoid X receptor (RXR) transcription factor pathway", "experiment": "Cignal RXR Reporter Assay (firefly luciferase) in HEK293 cells", "assay_type": "cell-based", "conditions": "for RXR activation (% control): 24 h, vs water", "text": "Objective: Retinoid X receptors (RXRs) are one class of nuclear receptors through which retinoids mediate their biological effects. These receptors function as transcription factors by binding as heterodimers to specific sequences in the promoters of target genes. The protein encoded by this gene is a member of the steroid and thyroid hormone receptor superfamily of transcriptional regulators. One of its ligands is all trans retinoic acid (ATRA)—a compound with well-established anti-aging skin benefits. […] Cignal RXR Reporter Assay® is designed to screen for such compounds (retinoic acid (ATRA), retinal, 10% w/w Near-1 in dimethylisosorbide, and 10% w/w retinoid ester in dimethylisosorbide) using cell cultures. The objective of this project was to test four compounds for the ability to activate RXR in this Cignal RXR Reporter Assay model.\nThe experiments were performed using HEK293 cells (Sigma, St. Louis, Mo.; cat. #85120602) seeded at 50,000 per well in a 96 well black-wall tissue culture plate. Cells were transfected by mixing Cignal RXR Reporter Assay firefly/renilla luciferase constructs (cat. #CCS9044L; Qiagen) with Attractene Transfection Reagent (Qiagen) in Opti-MEM supplemented with 1% MEM Non-essential amino acid solution without Lglutamine. After medium change test materials were added and their effect on RXR induction was quantified 24 h later with the Dual-Luciferase Reporter Assay System (cat. #E1960; Promega).\nRXR is a mixture of an inducible retinoid X receptor—responsive firefly luciferase construct and a constitutively expressing Renilla construct, which acts as an internal control for normalizing transfection efficiencies and monitoring cell viability. Signal quantification was obtained with ThermoFisher Scientific Luminoskan Ascent Microplate Luminometer."}}}
{"smiles": "CC1=C(/C=C/C(C)=C/C=C/C(C)=C/C(=O)OCCNC(=O)c2cccnc2)C(C)(C)CCC1", "note": "[NEAR-1, 2-(nicotinamido)-ethyl retinoate]", "values": [{"measurement": "RARE-mediated firefly luciferase expression, % control", "setting": "[1]; 1 μM", "result": 461, "unit": "% control"}, {"measurement": "RARE-mediated firefly luciferase expression, Fold increase", "setting": "[1]; 1 μM", "result": 4.6}, {"measurement": "RARE-mediated firefly luciferase expression, % control", "setting": "[1]; 5 μM", "result": 652, "unit": "% control"}, {"measurement": "RARE-mediated firefly luciferase expression, Fold increase", "setting": "[1]; 5 μM", "result": 6.5}, {"measurement": "RARE-mediated firefly luciferase expression, % control", "setting": "[1]; 10 μM", "result": 586, "unit": "% control"}, {"measurement": "RARE-mediated firefly luciferase expression, Fold increase", "setting": "[1]; 10 μM", "result": 5.8}, {"measurement": "Color measurement (whitening units)", "setting": "[2]; 833 μM, 2 weeks", "result": 30.0, "unit": "whitening units"}, {"measurement": "Raw *L values", "setting": "[2]; 833 μM, 2 weeks", "result": 72.8}, {"measurement": "Color measurement (whitening units)", "setting": "[2]; 2.2 mM, 2 weeks", "result": 27.4, "unit": "whitening units"}, {"measurement": "Melanin Content", "setting": "[2]; 2.2 mM, 2 weeks", "result": 22, "unit": "µg/mL"}, {"measurement": "Melanin Content (% control)", "setting": "[2]; 2.2 mM, 2 weeks", "result": 26, "unit": "% control"}, {"measurement": "Raw *L values", "setting": "[2]; 2.2 mM, 2 weeks", "result": 70.2}, {"measurement": "Whitening effect (ranking in the retinoid category)", "setting": "[2]; NEAR-1 at 833 μM, Retinaldehyde 833 μM+NAD 835 μM", "result": "best whitening effect at non-cytotoxic concentration"}, {"measurement": "IL-8 (col. Units)", "setting": "IL-8; 833 μM", "result": 208, "unit": "col. Units"}, {"measurement": "IL-8 (col. Units)", "setting": "IL-8; 2.2 mM", "result": 209, "unit": "col. Units"}, {"measurement": "Cytotoxicity", "setting": "MelanoDerm tissues", "result": "Yes"}, {"measurement": "RXR activation (% control)", "setting": "[3]; 1 μM", "result": 103, "unit": "% control"}, {"measurement": "RXR activation (% control)", "setting": "[3]; 5 μM", "result": 112, "unit": "% control"}, {"measurement": "RXR activation (% control)", "setting": "[3]; 10 μM", "result": 127, "unit": "% control"}, {"measurement": "modulatory effect on RXR-mediated gene expression", "setting": "[3]; 10 uM, statistically-significant", "result": 1.3, "unit": "fold"}]}
